Data as given in article PMC7533037, “Purification, structural analysis, and stability of antioxidant peptides from purple wheat bran” (BMC Chemistry, 2020).
Residues, ends and D or L forms follow the SMILES beside them. No end group written: not given here.

Tests used:
[1] = Temperature stability of antioxidant activity; type: physicochemical; settings: compared with the three other peptides; read-out superoxide scavenging and TEAC
Description: The antioxidant activities of purple wheat bran antioxidant peptides at different passivation temperatures for 60 min were studied. The detection method of antioxidant activities was shown in 2.4. Before the antioxidant activities were measured, the samples allowed to cool to room temperature (25 °C) and pH was adjusted to 7.0.
(§1) Peptides 2 and 4 synthesized in this study might be better antioxidants than the other peptides because of their high resistance to superoxide anion radical and high TEACs (Fig. 5) (P < 0.05). The peptide concentrations for the determination of superoxide anion radical scavenging activity and TEAC in the stability study (3.5 and 3.6) were chosen to be 1.0 and 0.5 mg/mL, respectively, according to the experimental results.

[2] = test system: pepsin; test: In vitro digestion stability, pepsin; type: in vitro ADME; settings: simulated gastrointestinal digestion, compared with before digestion, peptide 0.5 mg/mL (TEAC), 1.0 mg/mL (superoxide), n = 3
Text: (§2) According to the main components of human gastrointestinal digestive juice and digestive environment, a human gastrointestinal digestion simulation system was established to study the antioxidant activity changes of peptides after digestion by human gastrointestinal digestion simulation system. The method was according to the previously reported by Jang et al..
as §1

[3] = test system: chymotrypsin; test: In vitro digestion stability, chymotrypsin; type: in vitro ADME; settings: simulated gastrointestinal digestion, individually or continuously, compared with before digestion, peptide 0.5 mg/mL (TEAC), 1.0 mg/mL (superoxide), n = 3
Text: as §2, §1

[4] = test system: trypsin; test: In vitro digestion stability, trypsin; type: in vitro ADME; settings: simulated gastrointestinal digestion, compared with before digestion, peptide 0.5 mg/mL (TEAC), 1.0 mg/mL (superoxide), n = 3
Text: as §2, §1

[5] = Superoxide anion radical scavenging activity assay (pyrogallol autoxidation method); type: biochemical; settings: synthesized peptides, Tris-HCl pH 8.3, 320 nm, n = 3
Description: Superoxide anion radical scavenging activity assay was measured using the pyrogallol autoxidation method with some modifications. Mix 1.6 mL of sample with an equal volume of 50 mM Tris–HCl buffer (pH 8.3). The mixture was incubated in a bath for 20 min, then 0.8 mL of 1.5 mM pyrogallic acid was added. Absorbance of the mixture was measured at 320 nm every 30 s for 5 min. For blank, 1.6 mL of Tris–HCl buffer was used instead of sample. Ascorbic acid and GSH were used as positive controls. Superoxide anion radical scavenging activity was calculated as: O2-clearancerate%=1-ΔODS/ΔODb×100%, Where,ΔODSandΔODb represented slope of absorbance line for sample and slope of absorbance line for blank.

[6] = Trolox equivalent antioxidant capacity (TEAC), ABTS radical scavenging; type: biochemical; settings: synthesized peptides; PBS pH 7.4, 30 °C, 30 min, 734 nm; n = 3
Description: The experiment referred to methods of Costa and Xing and made appropriate modifications. This method used Trolox as the standard antioxidant and all reagents were prepared in 50 mmol/L phosphate buffered solution (pH 7.4). The specific operation was as follows: PBS (50 µL) solution (blank group), different concentrations of Trolox solution (standard control group) and sample solution to be tested (sample group) were added to a transparent 96-well microplate, and then 150 µL ABTS^+· was quickly added. The solution was shaken at 30 °C for 30 min and its absorbance was measured at 734 nm using a microplate scanning spectrophotometer (Multiskan FC, Thermo Fisher Scientific (Shanghai), China). ABTS radical scavenging activity was calculated as ABTS+·clearancerate%=1-ASample/ABlank×100

| Compound | temperature stability (overall) [1] | TEAC and superoxide anion radical scavenging activity after digestion by pepsin [2] | TEAC and superoxide anion radical scavenging activity after digestion by chymotrypsin [3] | TEAC and superoxide anion radical scavenging activity after digestion by trypsin [4] | IC50, superoxide anion radical scavenging [5] | IC50, TEAC (ABTS radical scavenging) [6] |
| --- | --- | --- | --- | --- | --- | --- |
| C[C@H](NC(=O)[C@@H](N)CCC(N)=O)C(=O)N[C@@H](CS)C(=O)O [peptide 2, Gln-Ala-Cys] (H-Gln-Ala-Cys-OH) | better temperature stability | remained at the same levels | remained at the same levels | remained at the same levels |  |  |
| N[C@@H](CO)C(=O)N[C@@H](CO)C(=O)N[C@@H](CS)C(=O)O [peptide 4, Ser-Ser-Cys] (H-Ser-Ser-Cys-OH) | better temperature stability | remained at the same levels | remained at the same levels | remained at the same levels |  |  |
| N[C@@H](Cc1c[nH]c2ccccc12)C(=O)N[C@@H](Cc1ccccc1)C(=O)O [peptide 5, Trp-Phe] (H-Trp-Phe-OH) |  | insignificant changes | significant reduction |  |  |  |
| N=C(N)NCCC[C@H](N)C(=O)N[C@@H](CC(N)=O)C(=O)N[C@@H](Cc1ccccc1)C(=O)O [peptide 3, Arg-Asn-Phe] (H-Arg-Asn-Phe-OH) |  | insignificant changes | significant reduction | significantly declined |  |  |
| CGFPGHC (cysteine pairing not given here) [peptide 1, antioxidant peptide identified in F4-4 of purple wheat bran protein hydrolysate, synthesized by Fmoc solid phase method] |  | insignificant changes | significant reduction |  | 2898 µg/mL | 763 µg/mL |
